From US20010010822A1, “LIPID COMPLEXES AND LIPOSOMES OF HIGHLY INSOLUBLE PLATINUM COMPLEXES” (priority 1999, published 2001)

Tested on: PLATINUM RESISTANT P388 CELL LINE
Assay: Anti-tumor activity of DACH-platinum compounds against platinum resistant P388 cell line
Assay type: in vivo
Settings: initial tumor burden 1.0 × 10^6

N.N.[Cl][Pt][Cl] [Cisplatin]
% Increase in Length of Survival (dose 3.5 mg/kg): +3%
% T/C (dose 3.5 mg/kg): 103.8%
Log10 Change in Tumor Burden (dose 3.5 mg/kg): +1.7
Median Day of Death (dose 3.5 mg/kg): 13.5
% Increase in Length of Survival (dose 5.3 mg/kg): +15%
% T/C (dose 5.3 mg/kg): 115.4%
Log10 Change in Tumor Burden (dose 5.3 mg/kg): +1.5
Median Day of Death (dose 5.3 mg/kg): 15.0
% Increase in Length of Survival (dose 8.0 mg/kg): +23%
% T/C (dose 8.0 mg/kg): 123.1%
Log10 Change in Tumor Burden (dose 8.0 mg/kg): +1.5
Median Day of Death (dose 8.0 mg/kg): 16.0
